Results reported in patent US4785090A, “Cephalosporin derivatives” (Meiji Seika Kaisha, Ltd., priority 1984, dated 1988).
In brackets after ≈: the same amount, converted by molar mass. Structures can show the parent of a compound that is named as a salt. Where two headings read alike, the source gives them in different places.

Tests used:
Format in all cases: cell-based
[1] = test system: Staphylococcus aureus 209PJC1; experiment: Minimum Growth Inhibitory Concentration (MIC), Staphylococcus aureus 209PJC1; details: Table 2, bacterium 2: Staphylococcus aureus 209 PJC1; read-out: Minimum Growth Inhibitory Concentration (MIC)
Source text: (§1) Minimum Growth Inhibitory Concentration (MIC) mcg/ml
1. Staphylococcus aureus 209PJC1
as §1
2. Staphylococcus aureus 209 PJC1

Proteus vulgaris GN 76 = experiment: Minimum Growth Inhibitory Concentration (MIC), Proteus vulgaris GN 76; details: GN76; Table 2, bacterium 8: Proteus vulgaris GN 76; read-out: Minimum Growth Inhibitory Concentration (MIC)
Source text: as §1
10. Proteus vulgaris GN 76
as §1
8. Proteus vulgaris GN 76

[2] = test system: Staphylococcus aureus Smith; experiment: Minimum Growth Inhibitory Concentration (MIC), Staphylococcus aureus Smith; details: Table 2, bacterium 1: Staphylococcus aureus Smith; read-out: Minimum Growth Inhibitory Concentration (MIC)
Source text: as §1
1. Staphylococcus aureus Smith

[3] = test system: Escherichia coli NIHJ JC2; experiment: Minimum Growth Inhibitory Concentration (MIC), Escherichia coli NIHJ JC2; details: NIHJJC2; Table 2, bacterium 3: Escherichia coli NIHJ JC2; read-out: Minimum Growth Inhibitory Concentration (MIC)
Source text: as §1
3. Escherichia coli NIHJ JC2

Eshcerichia coli GN 206 = experiment: Minimum Growth Inhibitory Concentration (MIC), Escherichia coli GN 206; details: GN206, Table 2, bacterium 4: Eshcerichia coli GN 206, read-out: Minimum Growth Inhibitory Concentration (MIC)
Source text: as §1
4. Eshcerichia coli GN 206

[4] = test system: Klebsiella pneumoniae PCI 602; experiment: Minimum Growth Inhibitory Concentration (MIC), Klebsiella pneumoniae PCI 602; details: PCI602; Table 2, bacterium 5: Klebsiella pneumoniae PCI 602; read-out: Minimum Growth Inhibitory Concentration (MIC)
Source text: as §1
5. Klebsiella pneumoniae PCI 602

Proteus mirabilis GN 79 = experiment: Minimum Growth Inhibitory Concentration (MIC), Proteus mirabilis GN 79; details: GN79; Table 2, bacterium 6: Proteus mirabilis GN 79; read-out: Minimum Growth Inhibitory Concentration (MIC)
Source text: as §1
6. Proteus mirabilis GN 79

[5] = test system: Salmonella typhimurium LT2; experiment: Minimum Growth Inhibitory Concentration (MIC), Salmonella typhimurium LT2; details: Salmonella enterica, read-out: Minimum Growth Inhibitory Concentration (MIC)
Source text: as §1
7. Salmonella typhimurium LT2

Proteus rettgeri GN624 = experiment: Minimum Growth Inhibitory Concentration (MIC), Proteus rettgeri GN624; details: Providencia rettgeri; Table 2, bacterium 9: Proteus rettgeri GN624; read-out: Minimum Growth Inhibitory Concentration (MIC)
Source text: as §1
9. Proteus rettgeri GN624

[6] = test system: Serratia marcescens No. 1; experiment: Minimum Growth Inhibitory Concentration (MIC), Serratia marcescens No. 1; details: Table 2, bacterium 11: Serratia marcescens No. 1
Source text: as §1
11. Serratia marcescens No. 1

[7] = Table 2, bacterium 7: Salmonella typhimurium LT2

CO/N=C(\C(=O)N[C@@H]1C(=O)N2C(C(=O)[O-])=C(CSc3cc[n+](CC(F)(F)F)cc3)CS[C@H]12)c1csc(N)n1 [Example 80, (6R,7R)-7-[(Z)-2-(2-Aminothiazol-4-yl)-2-methoxyiminoacetamido]-3-[1-(2,2,2-trifluoroethylpyridinium-4-yl)thiomethyl]-ceph-3-em-4-carboxylate] was tested, and the MIC [1] was 0.2 µg/mL (≈ 0.34 µM), the MIC (Proteus vulgaris GN 76) was 0.78 µg/mL (≈ 1.33 µM) and the MIC [2] was 0.2 µg/mL (≈ 0.34 µM). The MIC [3] was 0.2 µg/mL (≈ 0.34 µM), the MIC (Eshcerichia coli GN 206) was 0.05 µg/mL (≈ 0.0849 µM) and the MIC [4] was 0.2 µg/mL (≈ 0.34 µM). It also gave an MIC (Proteus mirabilis GN 79) of 1.56 µg/mL (≈ 2.65 µM), an MIC [5, 7] of 0.2 µg/mL (≈ 0.34 µM) and an MIC (Proteus rettgeri GN624) of 0.2 µg/mL (≈ 0.34 µM). For the same compound, the MIC [6] was 0.2 µg/mL (≈ 0.34 µM).

CCO/N=C(\C(=O)N[C@@H]1C(=O)N2C(C(=O)[O-])=C(CSc3cc[n+](CC(F)(F)F)cc3)CS[C@H]12)c1csc(N)n1 [Example 81, (6R,7R)-7-[(Z)-2-(2-Aminothiazol-4-yl)-2-ethoxyiminoacetamido]-3-[1-(2,2,2-trifluoroethylpyridinium-4-yl)thiomethyl]-ceph-3-em-4-carboxylate] was tested, and the MIC [1] was 0.39 µg/mL (≈ 0.647 µM), the MIC (Proteus vulgaris GN 76) was 0.39 µg/mL (≈ 0.647 µM) and the MIC [2] was 0.39 µg/mL (≈ 0.647 µM). The MIC [3] was 0.05 µg/mL (≈ 0.083 µM), the MIC (Eshcerichia coli GN 206) was no more than 0.025 µg/mL and the MIC [4] was 0.1 µg/mL (≈ 0.166 µM). For the same compound, the MIC (Proteus mirabilis GN 79) was 0.78 µg/mL (≈ 1.29 µM), the MIC [5, 7] was 0.05 µg/mL (≈ 0.083 µM) and the MIC (Proteus rettgeri GN624) was 0.1 µg/mL (≈ 0.166 µM). It also gave an MIC [6] of 0.05 µg/mL (≈ 0.083 µM).

Nc1nc(/C(=N/OCC(=O)O)C(=O)N[C@@H]2C(=O)N3C(C(=O)[O-])=C(CSc4cc[n+](CC(F)(F)F)cc4)CS[C@H]23)cs1 [Example 82, (6R,7R)-7-[(Z)-2-(2-Aminothiazol-4-yl)-2-(carboxymethoxyimino)acetamido]-3-[1-(2,2,2-trifluoroethylpyridinium-4-yl)thiomethyl]-ceph-3-em-4-carboxylic acid sodium salt] gave an MIC [1] of 3.13 µg/mL, an MIC (Proteus vulgaris GN 76) of 0.05 µg/mL and an MIC [2] of 3.13 µg/mL. It also gave an MIC [3] of 0.05 µg/mL, an MIC (Eshcerichia coli GN 206) of 0.05 µg/mL and an MIC [4] of no more than 0.025 µg/mL. For the same compound, the MIC (Proteus mirabilis GN 79) was 0.05 µg/mL, the MIC ([5]; TYPHIMURIUM) was less than 0.025 µg/mL and the MIC (Proteus rettgeri GN624) was less than 0.025 µg/mL. For the same compound, the MIC [6] was less than 0.025 µg/mL.

In the case of CC(C)(O/N=C(\C(=O)N[C@@H]1C(=O)N2C(C(=O)[O-])=C(CSc3cc[n+](CC(F)(F)F)cc3)CS[C@H]12)c1csc(N)n1)C(=O)O [Example 83, (6R,7R)-7-[(Z)-2-(2-Aminothiazol-4-yl)-2-(carboxyprop-2-oxyimino)acetamido]-3-[1-(2,2,2-trifluoroethylpyridinium-4-yl)thiomethyl]-ceph-3-em-4-carboxylic acid sodium salt], the MIC [1] is reported as 3.13 µg/mL, the MIC (Proteus vulgaris GN 76) is reported as 0.2 µg/mL and the MIC [2] is reported as 6.25 µg/mL. For the same compound, the MIC [3] was 0.2 µg/mL, the MIC (Eshcerichia coli GN 206) was 0.2 µg/mL and the MIC [4] was 0.2 µg/mL. For the same compound, the MIC (Proteus mirabilis GN 79) was 0.39 µg/mL, the MIC [5, 7] was 0.05 µg/mL and the MIC (Proteus rettgeri GN624) was 0.2 µg/mL. The MIC [6] was 0.05 µg/mL.

For CO/N=C(\C(=O)N[C@@H]1C(=O)N2C(C(=O)[O-])=C(CSc3cc[n+](CCF)cc3)CS[C@H]12)c1csc(N)n1 [Example 84, (6R,7R)-7-[(Z)-2-(2-Aminothiazol-4-yl)-2-methoxyiminoacetamido]-3-[1-(2-fluoroethylpyridinium-4-yl)thiomethyl]-ceph-3-em-4-carboxylate], the MIC [1] was 0.2 µg/mL (≈ 0.362 µM), the MIC (Proteus vulgaris GN 76) was 0.2 µg/mL (≈ 0.362 µM) and the MIC [2] was 0.2 µg/mL (≈ 0.362 µM). For the same compound, the MIC [3] was 0.05 µg/mL (≈ 0.0905 µM), the MIC (Eshcerichia coli GN 206) was less than 0.025 µg/mL and the MIC [4] was 0.1 µg/mL (≈ 0.181 µM). It also gave an MIC (Proteus mirabilis GN 79) of 0.39 µg/mL (≈ 0.706 µM), an MIC [5, 7] of 0.05 µg/mL (≈ 0.0905 µM) and an MIC (Proteus rettgeri GN624) of 0.1 µg/mL (≈ 0.181 µM). It also gave an MIC [6] of 0.025 µg/mL (≈ 0.0452 µM).
